Laboratory results: PubChem BioAssay (NCI)
Values joined by “and” are separate entries in the source; they are usually repeats but may differ in a detail not shown here. Identical values can stand only once.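 Interpolation was linear, between the two tested concentrations surrounding the appropriate level; five concentrations were tested over 48 hours in 96-well plates. Abbreviation: GI50, concentration required for 50% inhibition of growth. TGI: concentration producing complete growth inhibition.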

Legend:
Assay in all cases: growth of human tumour cells (NCI), 48 h
LOX IMVI melanoma = test system: LOX IMVI melanoma
MALME-3M melanoma = test system: MALME-3M melanoma
786-0 renal = test system: 786-0 renal
NCI-H226 lung = test system: NCI-H226 lung
HCT-15 colon = test system: HCT-15 colon
OVCAR-5 ovarian = test system: OVCAR-5 ovarian
ACHN renal = test system: ACHN renal
SK-MEL-5 melanoma = test system: SK-MEL-5 melanoma
U251 CNS = test system: U251 CNS
NCI/ADR-RES ovarian = test system: NCI/ADR-RES ovarian

SMILES	TGI (LOX IMVI melanoma)	GI50 (MALME-3M melanoma)	TGI (MALME-3M melanoma)	GI50 (786-0 renal)	TGI (786-0 renal)	GI50 (NCI-H226 lung)	TGI (NCI-H226 lung)	GI50 (HCT-15 colon)	TGI (HCT-15 colon)	GI50 (OVCAR-5 ovarian)	TGI (OVCAR-5 ovarian)	GI50 (ACHN renal)	TGI (ACHN renal)	GI50 (SK-MEL-5 melanoma)	TGI (SK-MEL-5 melanoma)	GI50 (U251 CNS)	TGI (U251 CNS)	GI50 (NCI/ADR-RES ovarian)	TGI (NCI/ADR-RES ovarian)	GI50 (LOX IMVI melanoma)
CC(=O)NC(CS)C(=O)O (centres undefined)	> 100 µM	> 100 µM	> 100 µM and 54500 µM	> 100 µM	> 100 µM and 58100 µM	> 100 µM	> 100 µM and 45000 µM	> 100 µM	> 100 µM and 47600 µM	> 100 µM	> 100 µM and 66200 µM	> 100 µM	> 100 µM	> 100 µM	> 100 µM and 66800 µM	> 100 µM	> 100 µM	> 100 µM	> 100 µM and 81500 µM	
CCNC(=O)Oc1ccc(/C(=C(\C)c2ccc(Cl)cc2)c2ccc(OCCN(CC)CC)cc2)cc1	4.02 µM	1.7 µM	3.61 µM	1.76 µM	3.42 µM	17.2 µM	39.5 µM	2.21 µM	7.04 µM	10.3 µM	23.1 µM	3.74 µM	14.6 µM	1.75 µM	3.15 µM	4.26 µM	13.5 µM	6.8 µM	22.7 µM	1.94 µM
COc1cc(-c2cc(-c3cccs3)c(C#N)c(N3CCOCC3)n2)cc(OC)c1OC	> 100 µM	3.66 µM	> 100 µM	1.82 µM	7.94 µM	20.5 µM	> 100 µM	3.09 µM	> 100 µM	> 100 µM	> 100 µM	6.45 µM	> 100 µM	5.71 µM	> 100 µM	4.94 µM	> 100 µM	5.08 µM	> 100 µM	12 µM
CC(=O)OC1CC2C(C)(C)CCC[C@]2(C)C2=C1C(O)=C(C(C)C)C(=O)C2=O (some centres undefined)	2.95 µM	0.341 µM	1.59 µM	0.813 µM	2.91 µM	0.589 µM	2.12 µM	0.351 µM	2.04 µM	1.44 µM	3.79 µM	0.465 µM	1.66 µM	0.174 µM	0.343 µM	0.666 µM	21.7 µM	0.817 µM	5.13 µM	1.15 µM
CC(=O)N(C)c1cc(NCc2ccccc2)ccc1OCc1ccccc1	36.2 µM		35.3 µM		76.6 µM		35.9 µM		39.2 µM		38.3 µM		36.5 µM		33.8 µM		32.9 µM		44.8 µM	
C=C1C[C@@H](O)[C@@H](Br)C(C)(C)[C@]12CCC(C)(Br)C(Cl)C2 (some centres undefined)	> 50 µM and 35 µM	16.5 µM	> 50 µM and 33.4 µM	17.9 µM	> 50 µM and 33.7 µM	15.6 µM	50 µM and 29.9 µM	23.7 µM	> 50 µM and 52.4 µM	1.23 µM	26.6 µM and 8.52 µM	18.5 µM	> 50 µM and 34.1 µM	16.7 µM	> 50 µM and 30.3 µM	17.7 µM	> 50 µM and 31.5 µM	22.5 µM	> 50 µM and 56 µM	18.1 µM
CCC1(OC(=O)CNC)C(=O)OCc2c1cc1n(c2=O)Cc2cc3ccccc3nc2-1 (centres undefined)	0.137 µM		1.31 µM		0.0152 µM		0.0641 µM		> 100 µM		0.221 µM		0.0184 µM		0.0337 µM		0.293 µM		0.0151 µM	
C=C[C@H]1CN2CCc3c([nH]c4c([C@@H]5CCCN5C)c(O)ccc34)[C@@H]2C[C@@H]1C[C@H]1c2[nH]c3ccccc3c2CCN1C	3.03 µM and 2.86 µM		3.41 µM	1.63 µM	3.15 µM and 2.83 µM	1.27 µM	2.96 µM and 3.13 µM and 3.97 µM		2.49 µM and 2.9 µM		3.29 µM and 3.31 µM and 3.39 µM		3.39 µM and 3.1 µM and 3.32 µM		3.02 µM and 3.04 µM		2.94 µM and 2.95 µM		3.34 µM and 3.52 µM	
O=C(Nc1ccn(C2CC(I)C(COC(c3ccccc3)(c3ccccc3)c3ccccc3)O2)c(=O)n1)c1ccccc1 (centres undefined)	14.7 µM		13.4 µM		15.5 µM		12.8 µM		21.5 µM		> 21.5 µM		21.5 µM		14.9 µM		14.5 µM		20.2 µM	
O=C(O)c1ccc(NCc2nc3ccccc3[nH]2)cc1	> 100 µM	1.25 µM	7.52 µM	> 100 µM	> 100 µM	> 100 µM	> 100 µM	> 100 µM	> 100 µM	> 100 µM	> 100 µM	> 100 µM	> 100 µM	> 100 µM	> 100 µM	> 100 µM	> 100 µM	> 100 µM	> 100 µM	> 100 µM
O=C(Nc1ccc(Oc2ccc(NC(=O)Nc3ccccc3Cl)cc2)cc1)Nc1ccccc1Cl	> 100 µM	15.4 µM	> 96 µM	22.6 µM	> 69.2 µM	15.6 µM	49 µM	0.677 µM	> 100 µM	27.6 µM	> 100 µM	> 22.2 µM	> 100 µM		> 100 µM	1.71 µM	20.5 µM	10.8 µM	> 63.8 µM	10.8 µM
COc1ccc2nc3cc(Cl)ccc3c(NCCNCC(O)CO)c2c1 (centres undefined)	2.35 µM	1.72 µM	5.93 µM	2.34 µM	12.3 µM	2.18 µM	12.1 µM	5.36 µM	20 µM	2.16 µM	11.2 µM	2.27 µM	13.3 µM	3.3 µM	11.1 µM	1.55 µM	10.8 µM	16.2 µM	36.1 µM	0.5 µM
Cc1cc(O[C@@H]2O[C@@H](C)[C@H](O)[C@@H](O)[C@H]2O)c2c3c(c(O[C@@H]4O[C@@H](C)[C@H](O)[C@@H](O)[C@H]4O)cc2c1)C(=O)c1c(O)cccc1C3=O	> 30 µM	> 30 µM	> 30 µM	> 30 µM	> 30 µM	> 30 µM	> 30 µM	> 30 µM	> 30 µM	> 30 µM	> 30 µM	> 30 µM	> 30 µM	> 30 µM	> 30 µM	> 30 µM	> 30 µM	> 30 µM	> 30 µM	> 30 µM
CCC(CC)c1cc(N[C@H]2CC[C@H](N)C2)n2nccc2n1	> 100 µM	2.07 µM	6.24 µM	2.22 µM	> 100 µM	0.969 µM	48.7 µM	2.23 µM	> 100 µM	0.533 µM	> 100 µM	1.44 µM	> 100 µM	2.21 µM	11 µM	0.858 µM	> 100 µM	6.41 µM	> 100 µM	0.747 µM
CC1NC(C(=O)O)Cc2cc(O)c(O)cc21 (centres undefined)	> 100 µM		> 100 µM		> 100 µM		> 100 µM		> 100 µM		> 100 µM		> 100 µM		> 100 µM		> 100 µM		> 100 µM	
CCC1=C[C@@H]2CN(C1)Cc1c([nH]c3ccccc13)[C@@](C(=O)OC)(c1cc3c(cc1OC)N(C)[C@H]1[C@@](O)(C(=O)OC)[C@H](OC(C)=O)[C@]4(CC)C=CCN5CC[C@]31[C@@H]54)C2	15.5 µM	< 0.01 µM	4.92 µM	< 0.0205 µM	13 µM	< 0.0302 µM	36.5 µM	0.141 µM	6.8 µM	< 0.01 µM	27.2 µM	0.194 µM	25.6 µM	< 0.01 µM	0.119 µM	< 0.01 µM	8.42 µM	1.58 µM	30.5 µM	< 0.01 µM
NC(=O)c1cc(I)ccc1NC(=O)/C=C/c1ccccc1Cl	98.7 µM	0.211 µM	17.6 µM	0.77 µM	20 µM	1.61 µM	> 60.6 µM	0.657 µM	> 68.3 µM	3.8 µM	37.2 µM	2.44 µM	> 73.6 µM	0.366 µM	13 µM	0.578 µM	19.5 µM	0.506 µM	4.65 µM	1.82 µM
Cc1cc(I)cc(CNCCN2CCOCC2)c1O	> 100 µM	> 100 µM	> 100 µM	36.9 µM	> 100 µM	> 100 µM	> 100 µM	> 100 µM	> 100 µM	59.8 µM	> 100 µM	> 100 µM	> 100 µM	67.1 µM	> 100 µM	> 100 µM	> 100 µM	12.5 µM	> 100 µM	> 100 µM
O=C(NCCCl)NCCN1c2nc3ccccc3cc2Sc2cc3ccccc3nc21	14.6 µM	0.968 µM	15.4 µM	1.55 µM	4.89 µM	1.82 µM	19 µM	2.74 µM	> 40 µM	4.24 µM	> 44.5 µM	3.02 µM	> 45.9 µM	0.168 µM	1.25 µM	1.93 µM	12.3 µM	1.61 µM	13 µM	2.36 µM
CN(C)c1ccc(/C=C(\C#N)c2ccccc2)cc1	> 100 µM and 43.1 µM	2.58 µM and 18 µM	> 100 µM	0.56 µM and 0.763 µM and 0.437 µM	> 100 µM and 58.6 µM and 30.2 µM	4.7 µM and 13.3 µM and 24 µM	> 100 µM	0.3 µM and 0.348 µM and 0.383 µM	> 100 µM	4.51 µM and 17.2 µM and 10.3 µM	> 100 µM	0.901 µM and 0.688 µM and 1.37 µM	> 100 µM	0.398 µM and 0.45 µM and 0.345 µM	26.3 µM and 18 µM and 17.8 µM	0.378 µM and 0.499 µM and 0.538 µM	55.4 µM and > 100 µM and 91.5 µM	0.348 µM and 0.395 µM and 0.324 µM	49.9 µM and > 100 µM and 74.1 µM	0.777 µM and 0.605 µM and 0.404 µM
COc1ccc(C2CC(c3ccccc3)=NN2C(=O)c2cc(OC)c(OC)c(OC)c2)cc1O (centres undefined)	15.6 µM	41.2 µM	> 100 µM	0.301 µM	3.86 µM	1.29 µM	21.3 µM	0.352 µM	40.2 µM	8.43 µM	> 65.5 µM	0.816 µM	58.1 µM	0.338 µM	2.17 µM	0.383 µM	13.8 µM	0.552 µM		0.611 µM
Nc1c(C(=O)c2ccc(C#CCN3CCOCC3)cc2)cnn1-c1ccc(F)cc1	> 25 µM	> 25 µM	> 25 µM	> 25 µM	> 25 µM	> 25 µM	> 25 µM	> 25 µM	> 25 µM	> 25 µM	> 25 µM	> 25 µM	> 25 µM	> 25 µM	> 25 µM	> 25 µM	> 25 µM	> 25 µM	> 25 µM	> 25 µM
Cc1ccc(/C=C(/C#N)n2nnc3ncccc32)cc1	11.3 µM	1.76 µM	26 µM	2.99 µM	16.4 µM	4.46 µM	28 µM	1.45 µM	16.7 µM	2.49 µM	10.1 µM	2.66 µM	13.4 µM	2.89 µM	12.8 µM	3.41 µM	14.1 µM	1.37 µM	> 100 µM	3.08 µM
CCSc1nc(NC(C)c2ccccc2)c2cnn(CO)c2n1 (centres undefined)	> 100 µM	29.6 µM	84.9 µM	59.9 µM	> 100 µM	47 µM	> 100 µM	70.2 µM	> 100 µM	> 100 µM	> 100 µM	76 µM	> 100 µM	3.18 µM	25.9 µM	74.8 µM	> 100 µM	80.8 µM	> 100 µM	37 µM
CON=C1C[C@]2(C[C@@H]3C[C@@H](C/C=C(\C)C[C@@H](C)/C=C/C=C4\CO[C@@H]5[C@H](O)C(C)=C[C@@H](C(=O)O3)[C@]45O)O2)O[C@H](/C(C)=C/C(C)C)[C@H]1C	26.5 µM	17.1 µM	34.4 µM	14.2 µM	28.4 µM	16 µM	29.8 µM	14.9 µM	30.9 µM	18.1 µM	37.4 µM	15.2 µM	29.3 µM	15.4 µM	29.1 µM	11.3 µM	24.3 µM	14.4 µM	29 µM	13.3 µM
O=C(/C=C\c1cc(Br)ccc1O)/C=C/c1cc(Br)ccc1O	0.463 µM	1.5 µM	3.08 µM	1.23 µM	2.55 µM	2.63 µM	8.69 µM	0.384 µM	1.76 µM	1.67 µM	3.33 µM	0.661 µM	2.05 µM	0.426 µM	1.66 µM	0.383 µM	1.55 µM	0.321 µM	12.9 µM	0.208 µM
